Source: PubChem BioAssay (NCI)
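Step 1: Grow cells in 96-well plates. Step 2: Expose to compound for 48 hours at 5 concentrations. Step 3: Interpolate endpoints linearly; if unreached, use highest concentration. Here, GI50 denotes the concentration required for 50% inhibition of growth. At the TGI there is no net growth.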

Tests used:
Experiment in all cases: NCI tumour cell line growth inhibition, 48 h
MOLT-4 leukemia = system: MOLT-4 leukemia
HOP-92 NSCLC = system: HOP-92 NSCLC
NCI-H226 lung = system: NCI-H226 lung
HS 578T breast = system: HS 578T breast
SF-295 CNS = system: SF-295 CNS
U251 CNS = system: U251 CNS
OVCAR-4 ovarian = system: OVCAR-4 ovarian
HOP-62 NSCLC = system: HOP-62 NSCLC
HCT-15 colon = system: HCT-15 colon
786-0 renal = system: 786-0 renal
SK-OV-3 ovarian = system: SK-OV-3 ovarian

Compound	GI50 (MOLT-4 leukemia)	TGI (MOLT-4 leukemia)	GI50 (HOP-92 NSCLC)	TGI (HOP-92 NSCLC)	GI50 (NCI-H226 lung)	TGI (NCI-H226 lung)	GI50 (HS 578T breast)	TGI (HS 578T breast)	GI50 (SF-295 CNS)	TGI (SF-295 CNS)	GI50 (U251 CNS)	TGI (U251 CNS)	GI50 (OVCAR-4 ovarian)	TGI (OVCAR-4 ovarian)	GI50 (HOP-62 NSCLC)	TGI (HOP-62 NSCLC)	GI50 (HCT-15 colon)	TGI (HCT-15 colon)	TGI (786-0 renal)	TGI (SK-OV-3 ovarian)
O=C(Nc1cccc(-n2ccc3c(NC(=O)c4ccccc4)nccc32)c1)Nc1cc(C(F)(F)F)cc(C(F)(F)F)c1	1.92 µM	36 µM	0.853 µM	3.95 µM	1.66 µM	16.4 µM	1.44 µM	> 50 µM	1.88 µM	30.5 µM	1.63 µM	7.68 µM	1.93 µM	> 50 µM	3.75 µM	> 50 µM	1.07 µM	33.2 µM	–	–
Oc1ccc(-c2nc(-c3cccnc3)c(-c3ccc(Cl)cc3)[nH]2)cc1O	–	> 100 µM	–	–	–	37.1 µM	–	36.4 µM	–	29.8 µM	–	26.4 µM	–	51.6 µM	–	25.3 µM	–	22.2 µM	> 100 µM	25.5 µM
O=C(c1ccco1)N1CCCN(C(=O)c2ccco2)C1=S	–	> 100 µM	–	–	–	> 100 µM	–	> 100 µM	–	–	–	> 100 µM	–	–	–	> 100 µM	–	> 100 µM	> 100 µM	> 100 µM
Cc1ccc(S(=O)(=O)N/N=C(\c2nc3ccc(Cl)cc3[nH]c2=O)C(O)c2cccc([N+](=O)[O-])c2)cc1 (stereo unspecified)	–	> 100 µM	–	> 100 µM	–	> 100 µM	–	–	–	> 100 µM	–	> 100 µM	–	> 100 µM	–	> 100 µM	–	> 100 µM	> 100 µM	> 100 µM
Cn1c(=O)c(C(=O)Nc2nc(C34CC5CC(CC(C5)C3)C4)cs2)c(O)c2ccccc21	–	–	–	65.9 µM	–	> 100 µM	–	> 100 µM	–	> 100 µM	–	> 100 µM	–	> 100 µM	–	36.2 µM	–	> 100 µM	> 100 µM	–
CCCCCCCCOC1C(O)C(O)C(O)C(O)C12CO2 (stereo unspecified)	–	> 100 µM	–	–	–	> 100 µM	–	> 100 µM	–	> 100 µM	–	> 100 µM	–	–	–	> 100 µM	–	> 100 µM	> 100 µM	> 100 µM
O=S(=O)(O)c1cc(O)c2c(N=Cc3ccccc3O)cc(S(=O)(=O)O)cc2c1	–	> 100 µM	–	> 100 µM	–	> 100 µM	–	–	–	> 100 µM	–	> 100 µM	–	> 100 µM	–	> 100 µM	–	> 100 µM	> 100 µM	> 100 µM
Cc1c(Cl)c2ccccc2n1S(=O)(=O)c1ccccc1	–	> 100 µM	–	54.2 µM	–	> 100 µM	–	–	–	> 100 µM	–	> 100 µM	–	> 100 µM	–	> 100 µM	–	> 100 µM	> 100 µM	–
CCOC(=O)C1(C/C=C(/C)Cl)CCCC1=O (stereo unspecified)	–	> 100 µM	–	–	–	> 100 µM	–	–	–	> 100 µM	–	> 100 µM	–	> 100 µM	–	> 100 µM	–	> 100 µM	> 100 µM	> 100 µM
COC(=O)/C=C1/CCC(C(=O)OC)N1 (stereo unspecified)	–	> 100 µM	–	> 100 µM	–	–	–	–	–	> 100 µM	–	> 100 µM	–	> 100 µM	–	> 100 µM	–	> 100 µM	> 100 µM	> 100 µM
COc1ccc(-c2cc(=O)c3cc4c(cc3[nH]2)OCO4)cc1OC	–	> 100 µM	–	> 100 µM	–	> 100 µM	–	–	–	> 100 µM	–	> 100 µM	–	> 100 µM	–	> 100 µM	–	> 100 µM	> 100 µM	> 100 µM
O=C(NCCC1([N+](=O)[O-])CCN(C(=O)c2ccccc2)CC1)c1ccccc1	–	> 100 µM	–	–	–	> 100 µM	–	> 100 µM	–	> 100 µM	–	–	–	> 100 µM	–	–	–	> 100 µM	> 100 µM	> 100 µM
CC(C)(C)N=NNc1cn(C2OC(CO)C(O)C2O)c(=O)[nH]c1=O (stereo unspecified)	–	> 100 µM	–	> 100 µM	–	> 100 µM	–	–	–	> 100 µM	–	–	–	–	–	> 100 µM	–	> 100 µM	> 100 µM	> 100 µM
C1CCC2(CC1)O[C@@H]1[C@@H](O2)[C@@H](O[C@H]2O[C@@H]3COC4(CCCCC4)O[C@H]3[C@@H]3OC4(CCCCC4)O[C@@H]23)O[C@@H]2COC3(CCCCC3)O[C@@H]12	–	> 100 µM	–	> 100 µM	–	–	–	> 100 µM	–	> 100 µM	–	> 100 µM	–	> 100 µM	–	> 100 µM	–	–	> 100 µM	> 100 µM
N#CC1=C(N)n2c(s/c(=C\c3ccc(Cl)cc3)c2=O)=C(c2nc3ccccc3[nH]2)C1c1ccc(Cl)cc1 (stereo unspecified)	–	3.86 µM	–	0.954 µM	–	3.46 µM	–	–	–	–	–	2.89 µM	–	5.22 µM	–	4.68 µM	–	4.2 µM	4.96 µM	–
CCCN1C(=O)CC(C)N(Cc2ccccc2Cl)C1=S (stereo unspecified)	–	> 100 µM	–	69.3 µM	–	–	–	> 100 µM	–	> 100 µM	–	67.8 µM	–	> 100 µM	–	> 100 µM	–	> 100 µM	> 100 µM	> 100 µM
CC(=O)[C@@]1(C)CC2(CCN(C)CC2)OC1C (stereo partly specified)	–	> 100 µM	–	> 100 µM	–	> 100 µM	–	–	–	> 100 µM	–	> 100 µM	–	> 100 µM	–	> 100 µM	–	> 100 µM	> 100 µM	> 100 µM
COc1cc2c(c(OC)c1OC)-c1ccc(SC)c(=O)cc1[C@@H](NCc1ccc(C#N)cc1)CC2	–	> 100 µM	–	> 100 µM	–	0.00977 µM	–	–	–	–	–	0.00787 µM	–	> 100 µM	–	> 100 µM	–	0.0463 µM	48.9 µM	–
O=C(/C=C/c1ccc(O)cc1)c1ccc2c(c1)OCO2	–	52.3 µM	–	58.8 µM	–	34.1 µM	–	–	–	55.5 µM	–	36.2 µM	–	48 µM	–	38.5 µM	–	83.8 µM	57.7 µM	82.6 µM
O=S(=O)(CCBr)CCBr	–	7.75 µM	–	20.9 µM	–	54.9 µM	–	–	–	29.8 µM	–	29.2 µM	–	22.5 µM	–	43.1 µM	–	7.88 µM	–	43.6 µM
COC(=O)C1C/C(=C/N(C)C)C(=S)N1 (stereo unspecified)	–	> 100 µM	–	> 100 µM	–	–	–	> 100 µM	–	> 100 µM	–	> 100 µM	–	> 100 µM	–	> 100 µM	–	> 100 µM	> 100 µM	> 100 µM
